# Test results reported in patent US8552066B2, “Modified chalcone compounds as antimitotic agents” (Arizona Biomedical Research Commission, priority 2006, dated 2013).
# Where two headings read alike, the source gives them in different places.
# What was measured:
# CCRF-CEM = experiment: NCI 60-cell-line cancer screen, growth inhibition (SRB); format: cell-based; settings: Leukemia CCRF-CEM, duplicate evaluations
# Description: (§1) Cell growth inhibition studies whose results are reported above were carried out at the National Cancer Institute essentially as follows. Cells grown in RPMI 1640 medium containing 5% fetal bovine serum and 2 mM L-glutamine were inoculated into 96-well microtiter plates, which were incubated for 24 hours prior to addition of CMAC-1 at five concentrations. After 48 hours, cold trichloroacetic acid was added, and the plates were washed and air dried. The cells were stained with sulforhodamine B (SRB), and the absorbance was read on an automated plate reader at a wavelength of 515 nm. The percentage growth was calculated at each of the drug concentrations. The growth inhibition of 50% (GI50) was then calculated. The GI50 is the drug concentration resulting in a 50% reduction in the net protein increase (as measured by SRB staining) in control cells during the drug incubation.
# EKVX = experiment: as above; format: cell-based; settings: NSCLC EKVX, duplicate evaluations
# Description: as §1
# HCT-15 = experiment: as above; format: cell-based; settings: Homo sapiens
# Description: as §1
# HL60-(TB) = experiment: as above; format: cell-based; settings: Homo sapiens
# Description: as §1
# HOP-62 = experiment: as above; format: cell-based
# Description: as §1
# HS 578T = experiment: as above; format: cell-based; settings: Breast HS 578T, duplicate evaluations
# Description: as §1
# HT29 = experiment: as above; format: cell-based
# Description: as §1
# K562 = experiment: as above; format: cell-based; settings: Homo sapiens
# Description: as §1
# M14 = experiment: as above; format: cell-based; settings: Homo sapiens; Melanoma M14; 48 hours; duplicate evaluations
# Description: as §1
# MALMI-3M = experiment: as above; format: cell-based; settings: Melanoma MALMI-3M, duplicate evaluations
# Description: as §1
# MCF7 = experiment: as above; format: cell-based
# Description: as §1
# MDA-MB-435 = experiment: as above; format: cell-based; settings: Homo sapiens
# Description: as §1
# NCI-H226 = experiment: as above; format: cell-based
# Description: as §1
# NCI-H322M = experiment: as above; format: cell-based; settings: NSCLC NCI-H322M, duplicate evaluations
# Description: as §1
# NCI-H460 = experiment: as above; format: cell-based
# Description: as §1
# NCI-H522 = experiment: as above; format: cell-based
# Description: as §1
# NCI/ADR-RES = experiment: as above; format: cell-based; settings: Breast NCI/ADR-RES, duplicate evaluations
# Description: as §1
# OVCAR-3 = experiment: as above; format: cell-based
# Description: as §1
# OVCAR-8 = experiment: as above; format: cell-based
# Description: as §1
# RPMI-8226 = experiment: as above; format: cell-based; settings: Homo sapiens
# Description: as §1
# SF-268 = experiment: as above; format: cell-based
# Description: as §1
# SF-295 = experiment: as above; format: cell-based
# Description: as §1
# SF-539 = experiment: as above; format: cell-based
# Description: as §1
# SNB-75 = experiment: as above; format: cell-based
# Description: as §1
# SR = experiment: as above; format: cell-based; settings: Homo sapiens
# Description: as §1
# SW-620 = experiment: as above; format: cell-based; settings: Homo sapiens
# Description: as §1
# U251 = experiment: as above; format: cell-based
# Description: as §1
# UACC-257 = experiment: as above; format: cell-based
# Description: as §1
# MIA PaCa-2 cells = experiment: Growth inhibition assay in pancreatic cancer cell lines (MTS); format: cell-based, human
# Description: (§2) Growth inhibition assays for determination of GI50 values in pancreatic cancer cell lines were typically carried out essentially as follows. Compounds were individually tested at various concentrations against cancer cells grown in cell culture. The cell viability was determined by use of a standard assay that employs 3-(4,5-dimethylthiazol-2-yl)-5-(3-carboxymethoxyphenyl)-2-(4-sulfophenyl)-2H-tetrazolium, inner salt (MTS), and an electron coupling reagent, phenazine methosulfate (PMS). Absorbance at 490 nm (A490) was measured, and survival curves were obtained by comparison of A490 from treated cells with A490 from untreated cells (control). GI50 values were calculated from nonlinear curve fitting.
# Melanoma = experiment: NCI 60-cell-line panel, summary by cancer type; format: cell-based
# Description: as §1
# [1] = test system: individual cell lines of central nervous system (CNS) cancer; experiment: NCI 60-cell-line panel, summary by cancer type; format: cell-based
# Description: as §1
# [2] = test system: individual cell lines of non-small-cell lung cancer (NSCLC); experiment: NCI 60-cell-line panel, summary by cancer type; format: cell-based
# Description: as §1
# [3] = test system: individual cell lines of ovarian cancer; experiment: NCI 60-cell-line panel, summary by cancer type; format: cell-based
# Description: as §1
# [4] = test system: individual cell lines of prostate cancer; experiment: NCI 60-cell-line panel, summary by cancer type; format: cell-based
# Description: as §1
# renal cancer = experiment: NCI 60-cell-line panel, summary by cancer type; format: cell-based
# Description: as §1
# [5] = test system: BxPC-3 (pancreatic) cancer cells; experiment: Growth inhibition assay in pancreatic cancer cell lines (MTS); format: cell-based; settings: read-out: 50% growth inhibition (GI50)
# Description: as §2
smiles,measurement,setting,value
"C/C=C/C(=O)SCC(=O)Oc1cc(/C=C/C(=O)c2cc(OC)c(OC)c(OC)c2)ccc1OC [CMAC-1, 3-[3-(crotonylsulfanylmethylcarbonyloxy)-4-methoxyphenyl]-1-(3,4,5-trimethoxyphenyl)propenone]",GI50,"CCRF-CEM; Homo sapiens, CCRF-CEM, 48 h",0.0716 µM
same,GI50,CCRF-CEM; 48 hours,0.086 µM
same,GI50,"EKVX; Homo sapiens, EKVX, 48 h",2.09 µM
same,GI50,EKVX; 48 hours,1.7 µM
same,GI50,"HCT-15; Colon HCT-15, 48 hours, duplicate evaluations",< 0.01 µM
same,GI50,"HCT-15; colon HCT-15, Table 2",< 0.01 µM
same,GI50,"HL60-(TB); HL-60, Leukemia HL60-(TB), 48 hours, duplicate evaluations",< 0.01 µM
same,GI50,"HL60-(TB); leukemia HL-60, Table 2",< 0.01 µM
same,GI50,"HOP-62; Homo sapiens, HOP-62, 48 h, NSCLC HOP-62, duplicate evaluations",1.23 µM
same,GI50,"HOP-62; NSCLC HOP-62, 48 hours, duplicate evaluations",1 µM
same,GI50,HS 578T; 48 hours,0.0206 µM
same,GI50,"HS 578T; Homo sapiens, Hs-578T, 48 h",0.0404 µM
same,GI50,"HT29; Colon HT29, 48 hours, duplicate evaluations",1.68 µM
same,GI50,"HT29; Homo sapiens, HT-29, 48 h, Colon HT29, duplicate evaluations",2.87 µM
same,GI50,"K562; K562, leukemia K-562, Table 2",< 0.01 µM
same,GI50,"K562; Leukemia K562, 48 hours, duplicate evaluations",< 0.01 µM
same,GI50,M14,0.0623 µM
same,GI50,MALMI-3M; 48 h,0.0742 µM
same,GI50,MALMI-3M; 48 hours,0.0447 µM
same,GI50,"MCF7; Breast MCF7, 48 hours, duplicate evaluations",0.03 µM
same,GI50,"MCF7; Homo sapiens, MCF7, 48 h, Breast MCF7, duplicate evaluations",0.0285 µM
same,GI50,"MDA-MB-435; Breast MDA-MB-435, 48 hours, duplicate evaluations",< 0.01 µM
same,GI50,"MDA-MB-435; breast cancer cells MDA-MB-435, Table 2",< 0.01 µM
same,GI50,"NCI-H226; Homo sapiens, NCI-H226, 48 h, NSCLC NCI-H226, duplicate evaluations",17.2 µM
same,GI50,"NCI-H226; NSCLC NCI-H226, 48 hours, duplicate evaluations",11.2 µM
same,GI50,"NCI-H322M; Homo sapiens, NCI-H322M, 48 h",0.0851 µM
same,GI50,NCI-H322M; 48 hours,0.0703 µM
same,GI50,"NCI-H460; Homo sapiens, NCI-H460, 48 h, NSCLC NCI-H460, duplicate evaluations",0.0524 µM
same,GI50,"NCI-H460; NSCLC NCI-H460, 48 hours, duplicate evaluations",0.0335 µM
same,GI50,"NCI-H522; Homo sapiens, NCI-H522, 48 h, NSCLC NCI-H522, duplicate evaluations",0.0224 µM
same,GI50,"NCI-H522; NSCLC NCI-H522, 48 hours, duplicate evaluations",0.0158 µM
same,GI50,NCI/ADR-RES; 48 hours,0.0322 µM
same,GI50,"NCI/ADR-RES; Homo sapiens, NCI/ADR-RES, 48 h",0.0262 µM
same,GI50,"OVCAR-3; Homo sapiens, OVCAR-3, 48 h, Ovarian OVCAR-3, duplicate evaluations",0.0116 µM
same,GI50,"OVCAR-3; Ovarian OVCAR-3, 48 hours, duplicate evaluations",< 0.01 µM
same,GI50,"OVCAR-8; Homo sapiens, OVCAR-8, 48 h, Ovarian OVCAR-8, duplicate evaluations",0.0439 µM
same,GI50,"OVCAR-8; Ovarian OVCAR-8, 48 hours, duplicate evaluations",0.0471 µM
same,GI50,"RPMI-8226; Leukemia RPMI-8226, 48 hours, duplicate evaluations",< 0.01 µM
same,GI50,"RPMI-8226; leukemia RPMI-8226, Table 2",< 0.01 µM
same,GI50,"SF-268; CNS SF-268, 48 hours, duplicate evaluations",0.0638 µM
same,GI50,"SF-268; Homo sapiens, SF-268, 48 h, CNS SF-268, duplicate evaluations",0.0811 µM
same,GI50,"SF-295; CNS SF-295, 48 hours, duplicate evaluations",0.231 µM
same,GI50,"SF-295; Homo sapiens, SF-295, 48 h, CNS SF-295, duplicate evaluations",0.215 µM
same,GI50,"SF-539; CNS SF-539, 48 hours, duplicate evaluations",< 0.01 µM
same,GI50,"SF-539; Homo sapiens, 48 h, CNS SF-539, duplicate evaluations",0.0164 µM
same,GI50,"SNB-75; CNS SNB-75, 48 hours, duplicate evaluations",< 0.01 µM
same,GI50,"SNB-75; Homo sapiens, SNB-75, 48 h, CNS SNB-75, duplicate evaluations",0.0165 µM
same,GI50,"SR; Leukemia SR, 48 hours, duplicate evaluations",< 0.01 µM
same,GI50,"SR; leukemia SR, Table 2",< 0.01 µM
same,GI50,"SW-620; Colon SW-620, 48 hours, duplicate evaluations",< 0.01 µM
same,GI50,"SW-620; colon SW-620, Table 2",< 0.01 µM
same,GI50,"U251; CNS U251, 48 hours, duplicate evaluations",0.0521 µM
same,GI50,"U251; Homo sapiens, U-251, 48 h, CNS U251, duplicate evaluations",0.0427 µM
same,GI50,"UACC-257; Homo sapiens, UACC-257, 48 h, Melanoma UACC-257, duplicate evaluations",3.58 µM
same,GI50,"UACC-257; Melanoma UACC-257, 48 hours, duplicate evaluations",4.14 µM
same,GI50,"MIA PaCa-2 cells; Homo sapiens, MIA PaCa-2 pancreatic cancer cells in culture, read-out: concentration required for 50% growth inhibition (GI50)",0.016 µM
same,GI50,Melanoma,< 0.075 µM
same,GI50,[1],< 0.05 µM
same,GI50,[2],< 0.05 µM
same,GI50,[3],< 0.05 µM
same,GI50,[4],< 0.05 µM
same,GI50,renal cancer,< 0.15 µM
same,melting point,,123 to 125.5 °C
"C/C=C/C(=O)SCC(=O)OCc1ccc(/C=C/C(=O)c2cc(OC)c(OC)c(OC)c2)o1 [CMAF-1, 3-[5-(crotonylsulfanylmethylcarbonyloxymethyl)-2-furyl]-1-(3,4,5-trimethoxyphenyl)propenone]",GI50,"MIA PaCa-2 cells; human pancreatic cancer cell (MIA PaCa-2) growth in culture, read-out: GI50",17 µM
"C=C(Cl)C(=O)Oc1cc(C=CC(=O)c2cc(OC)c(OC)c(OC)c2)ccc1OC [Entry 6, 3-[3-(2-Chloroacryloyloxy)-4-methoxyphenyl]-1-(3,4,5-trimethoxyphenyl)propenone]",GI50,"MIA PaCa-2 cells; MIA PaCa-2 pancreatic cancer cells in culture, read-out: concentration required for 50% growth inhibition (GI50)",0.056 µM
same,GI50,[5],4.5 µM
